Measurements taken from the NIST ThermoML archive (doi:10.1016/j.tca.2009.08.017).
Numbers after ± are expanded uncertainties.

Legend:
[1] = Crystal; DTA
[2] = Molar enthalpy of transition or fusion; settings: Crystal; DSC

Row | Normal melting temperature [1] | Molar enthalpy of transition or fusion [2] | SMILES
1 | 182.20 ± 3.4 °C | 6.93 ± 0.884 kcal/mol | NC(=O)CC[C@H](N)C(=O)O [L-glutamine]
2 | 210.20 ± 3.2 °C | 26.9 ± 1.53 kcal/mol | NC(=O)C[C@H](N)C(=O)O [L-asparagine]
